Measured values from patent US20260034253A1, “NECTIN-4 MINIPROTEIN CONJUGATES” (Aktis Oncology, Inc., priority 2022, published 2026).
Numbered stars: 1 amine (or outer) side, 2 acyl side, 3 side chain; on linkers, the order of the positions; unused ones are H or OH. Bridge positions count the residues as written; N and C are the ends. Square brackets hold non-standard residues; d marks the D form. Ends that are not written are not given here. * marks the point of attachment. Biotin = O=C1N[C@H]2[C@H](CS[C@H]2CCCCC(=O)*)N1; X1 = O=C([C@H](CCCCO)N[*:1])[*:2]; Cit = NC(=O)NCCC[C@H](N)C(=O)O; PEG4 = NCCOCCOCCOCCOCCC(=O)O

Target: T1, human Nectin-4 (Homo sapiens, UniProt Q96NY8)
T1 sequence (Q96NY8 32-510): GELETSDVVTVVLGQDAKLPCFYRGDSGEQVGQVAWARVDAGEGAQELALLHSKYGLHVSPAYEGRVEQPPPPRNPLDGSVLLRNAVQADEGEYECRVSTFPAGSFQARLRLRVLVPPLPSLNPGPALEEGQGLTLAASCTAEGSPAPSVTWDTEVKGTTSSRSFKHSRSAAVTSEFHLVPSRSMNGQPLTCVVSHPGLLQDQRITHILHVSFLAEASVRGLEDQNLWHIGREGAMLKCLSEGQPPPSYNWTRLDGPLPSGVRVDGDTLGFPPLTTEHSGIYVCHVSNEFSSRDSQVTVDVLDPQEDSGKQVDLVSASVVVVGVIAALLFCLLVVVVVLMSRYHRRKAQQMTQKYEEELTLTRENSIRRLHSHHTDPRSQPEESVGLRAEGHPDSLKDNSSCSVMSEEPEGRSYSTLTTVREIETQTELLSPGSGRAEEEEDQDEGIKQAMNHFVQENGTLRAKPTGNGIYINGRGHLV
Assay: Surface plasmon resonance (Biacore T200) binding to human Nectin-4
Details: Table 2B, binding affinities of exemplary compounds to Nectin-4, read-out: Binding Affinity
Experimental: Peptide binding affinity to the target protein was measured by SPR using a Biacore T200 instrument. The target protein was covalently coupled to a Biacore chip surface using free amine-coupling chemistry (NHS/EDC) and all uncoupled sites were blocked with ethanolamine. Free peptides were flowed over the target protein surface in increasing concentrations to measure association (KA) and dissociation ([…]) to calculate the equilibrium dissociation constant (KD) using an appropriate binding model (see, e.g., Nikolas Stroth, J Biol Methods. 2016; 3 (1)).
In all figures (FIGS. 1A, 1B, 2A, and 2B), lines on graphs are labeled from top to bottom, beginning with letter “a,” and the corresponding concentration is noted to the right of the figure, next to the letter designating each line.
Surface plasmon resonance (SPR) analyses were performed using Biacore T200 (GE Healthcare). Target protein (“ligand”) was immobilized to a CM5 Series S sensor chip (Cytiva) using amine-coupling chemistry. Running buffer was 0.05% Surfactant P20 in HEPES buffered saline (HBS-P), pH 7.4 (Cytiva). Immobilization was performed at 25° C. Carboxyl groups in each flow cell were activated using a 1:1 mixture of 0.4 M 1-ethyl-3-(3-dimethylaminopropyl)-carbodiimide in water (EDC) and 0.1 M N-hydroxysuccinimide in water (NHS) for 7 minutes. The ligand was prepared in 10 mM Sodium acetate pH 5 (Cytiva). Pulsatile injections were made to target a specific immobilization level. Any remaining amine-reactive esters on the chip surface were blocked with a 7-minute injection of 1 M ethanolamine, pH 8.5. Three 10-second pulses of 50 mM Sodium hydroxide were then made to remove any unbound ligand. Reference cells were modified using amine coupling chemistry, omitting ligand injection.
Increase in signal (RU) is proportional to an increase in binding events between the analyte and ligand surface. The injection was then stopped, and dissociation was measured. The resulting sensorgram has reference surface and blank injection subtracted prior to curve fitting. Measured association (ka, 1/M^s−1) and dissociation (kd, s^−1) were fit to a 1:1 binding model to calculate an equilibrium dissociation constant, KD(M) for each analyte. Equilibrium binding constants (KD) and binding inhibition constants (Ki) estimated from surface plasmon resonance (SPR) or DELFIA® binding assays for exemplary compounds as set forth in Table 2A.
In this example, affinity for mouse Nectin-4 (FIG. 3A) and human Nectin-4 (FIG. 3B) were measured using a 1:1 binding model at twenty-five degrees Celsius. In both of FIGS. 3A and 3B, lines on graphs were labeled from top to bottom, beginning with letter a, and the corresponding concentration was noted to the right of the figure.

Point of comparison: “{Biotin-PEG4}-CDYDEEFFTALKRLRGGDICSYIQASFQYLPGLCIEEILDNLGCS (disulfide 1-34, 20-44) [Compound C189]”, Kd 1.1 nM. Against it:
- CC[C@H](C)[C@@H]1NC(=O)[C@H](Cc2ccc(O)cc2)NC(=O)[C@H](CO)NC(=O)[C@@H]2CSSC[C@@H](C(=O)N[C@@H](CO)C(=O)O)NC(=O)CNC(=O)[C@H](CC(C)C)NC(=O)[C@H](CC(N)=O)NC(=O)[C@H](CC(=O)O)NC(=O)[C@H](CC(C)C)NC(=O)[C@H]([C@@H](C)CC)NC(=O)[C@H](CCC(=O)O)NC(=O)[C@H](CCC(=O)O)NC(=O)[C@H]([C@@H](C)CC)NC(=O)[C@H](CSSC[C@H](NC(=O)CCOCCOCCOCCOCCNC(=O)CCCC[C@@H]3SC[C@@H]4NC(=O)N[C@@H]43)C(=O)N[C@@H](CCC(=O)O)C(=O)N[C@@H](Cc3ccc(O)cc3)C(=O)N[C@@H](CC(=O)O)C(=O)N[C@@H](CCC(=O)O)C(=O)N[C@@H](CCC(=O)O)C(=O)N[C@@H](Cc3ccccc3)C(=O)N[C@@H](Cc3ccccc3)C(=O)N[C@@H]([C@@H](C)O)C(=O)N[C@@H](C)C(=O)N[C@@H](CC(C)C)C(=O)N[C@@H](CCCCN)C(=O)N[C@@H](CCCNC(=N)N)C(=O)N[C@@H](CC(C)C)C(=O)N[C@@H](CCCNC(=N)N)C(=O)NCC(=O)NCC(=O)N[C@@H](CC(=O)O)C(=O)N[C@@H]([C@@H](C)CC)C(=O)N2)NC(=O)[C@H](CC(C)C)NC(=O)CNC(=O)[C@@H]2CCCN2C(=O)[C@H](CC(C)C)NC(=O)[C@H](Cc2ccc(O)cc2)NC(=O)[C@H](CCC(N)=O)NC(=O)[C@H](Cc2ccccc2)NC(=O)[C@H](CO)NC(=O)[C@H](C)NC(=O)[C@H](CCC(N)=O)NC1=O [Compound C179] — 1.6-fold higher, 1.8 nM
- {Biotin-PEG4}-CDYDEEFFTALKRLRGDDICEYIQASFQYLPGLCIEEILDNLGCS-OH (disulfide 1-34, 20-44) [Compound C191] — within 1.5-fold, 1.4 nM
- {Biotin-PEG4}-CDYDEQFFTALKRLRGDDICEYIQASFQYLPGLCIEEILDNLGCS (disulfide 1-34, 20-44) [Compound C193] — within 1.5-fold, 1 nM
- {Biotin-PEG4}-CEYDEEFFTALAQLRGGDICYYIQAKFQYLPGLCIEEILDNLGCS (disulfide 1-34, 20-44) [Compound C162] — 8-fold higher, 8.8 nM
- {Biotin-PEG4}-CEYDEEFFTALARLRGADICYYIQAKFQYLPGDCIEEILDNLGCS (disulfide 1-34, 20-44) [Compound C140] — the same, 1.1 nM
- {Biotin-PEG4}-CEYDEEFFTALARLRGGDICDYIQAKFQYLPGLCIAEILDNLGCS (disulfide 1-34, 20-44) [Compound C157] — the same, 1.1 nM
- {Biotin-PEG4}-CEYDEEFFTALARLRGGDICEYIQAKFQYLEGLCIEEILDNLGCS-OH (disulfide 1-34, 20-44) [Compound C150] — within 1.5-fold, 1 nM
- {Biotin-PEG4}-CEYDEEFFTALARLRGGDICQYIQAKFQYLPGQCIEEILDNLGCS-OH (disulfide 1-34, 20-44) [Compound C149] — within 1.5-fold, 0.75 nM
- {Biotin-PEG4}-CEYDEEFFTALARLRGGDICYYILAKFQYLPGECIEEILDNLGCS (disulfide 1-34, 20-44) [Compound C145] — within 1.5-fold, 1.3 nM
- {Biotin-PEG4}-CEYDEEFFTALARLRGGDICYYIQAKFQYLPKLCIEEILDNLGCS (disulfide 1-34, 20-44) [Compound C166] — within 1.5-fold, 0.75 nM
- {Biotin-PEG4}-CEYDEEFFTALARLRGGDICYYIQA[X1]FQYLPGLCIEEILDNLGCS-OH (disulfide 1-34, 20-44) [Compound C164] — 4.5-fold higher, 5 nM
- {Biotin-PEG4}-CEYDEEFFTALARLRGSDICLYIQAKFQYLPGLCIEEILDNLGCS (disulfide 1-34, 20-44) [Compound C156] — the same, 1.1 nM
- {Biotin-PEG4}-CEYDEEFFTALASLRGGDICYYIQAKFQYLPGLCIEEILDNLGCS-OH (disulfide 1-34, 20-44) [Compound C161] — 6.8-fold higher, 7.5 nM
- {Biotin-PEG4}-CEYDEEFFTALA[Cit]LRGDDICSYIQA[X1]FQYLPGLCIEEILDNLGCS-OH (disulfide 1-34, 20-44) [Compound C170] — 8-fold higher, 8.8 nM
- {Biotin-PEG4}-CEYDEEFFTALKRLRGADICDYIQASFQYLPGLCIEEILDNLGCS (disulfide 1-34, 20-44) [Compound C195] — 2.1-fold higher, 2.3 nM
- {Biotin-PEG4}-CEYDEEFFTALKRLRGDDICSYIQASFQYLPGLCIEEILDNLGCS (disulfide 1-34, 20-44) [Compound C182] — 2.7-fold higher, 3 nM
- {Biotin-PEG4}-CEYDEEFFTALKRLRGGDICDYIQASFQYLPGECIEEILDNLGCS (disulfide 1-34, 20-44) [Compound C203] — 2.1-fold higher, 2.3 nM
- {Biotin-PEG4}-CEYDEEFFTALKRLRGGDICDYIQASFQYLPGLCIEEILDNLGCS-OH (disulfide 1-34, 20-44) [Compound C200] — 1.8-fold higher, 2 nM
- {Biotin-PEG4}-CEYDEEFFTALKRLRGGDICEYIQAAFQYLPGLCIEEILDNLGCS (disulfide 1-34, 20-44) [Compound C198] — 2.1-fold higher, 2.3 nM
- {Biotin-PEG4}-CEYDEEFFTALKRLRGGDICEYIQASFQYLPGECIEEILDNLGCS (disulfide 1-34, 20-44) [Compound C202] — 2-fold higher, 2.2 nM
- {Biotin-PEG4}-CEYDEQFFTALKRLRGADICEYIQASFQYLPGLCIEEILDNLGCS (disulfide 1-34, 20-44) [Compound C183] — within 1.5-fold, 1.2 nM
- {Biotin-PEG4}-CEYDEQFFTALKRLRGADICSYIQASFQYLPGLCIEEILDNLGCS (disulfide 1-34, 20-44) [Compound C185] — within 1.5-fold, 1 nM
- {Biotin-PEG4}-CEYDGEFFTALARLRGADICEYIQAKFQYYPGLCIEEILDNLGCS (disulfide 1-34, 20-44) [Compound C144] — 3.4-fold higher, 3.7 nM
- {Biotin-PEG4}-CEYDGEFFTALARLRGGDICQYIQAKFQYLPGLCIEEILDNLGCS-OH (disulfide 1-34, 20-44) [Compound C158] — the same, 1.1 nM
